Experiments:
[1] = test system: ISH467-N2C0 recombinant β-galactoside-α2,3-sialyltransferase; assay: Acceptor substrate specificity of recombinant β-galactoside-α2,3-sialyltransferase (mono-, di-, trisaccharides); assay type: biochemical, Photobacterium phosphoreum
Description: (§1) Cell homogenates prepared from E. coli cells introduced with the third clone of ISH467-N2C0, the first clone of ISH224-N1C0 and the first clone of FAJ-N1C0 were each purified by ion exchange chromatography and hydroxyapatite chromatography to give an electrophoretically single band. The thus purified β-galactoside-α2,3-sialyltransferases were used in the following experiment in order to examine the presence or absence of sialyltransferase activity toward various monosaccharides, disaccharides and trisaccharides.
(§2) A reaction solution (24 μl) was prepared to contain CMP-^14C-NeuAc-containing CMP-NeuAc as a glycosyl donor substrate ([…], final concentration in the reaction solution: […]), any of various glycosyl acceptor substrates dissolved in 20 mM cacodylate buffer (pH 5.0) (1 μmol, final concentration in the reaction solution: 42 mM), sialyltransferase (in an amount as indicated in the footnotes of the tables below) and NaCl (final concentration in the reaction solution: 500 mM), and reacted under conditions as indicated in the footnotes of the tables below. The monosaccharides used as glycosyl acceptor substrates were the following 10 types: methyl-α-D-galactopyranoside (Gal-α-OMe), methyl-(β-D-galactopyranoside (Gal-β-OMe), methyl-α-D-glucopyranoside (Glc-α-OMe), methyl-β-D-glucopyranoside (Glc-β-OMe), methyl-α-D-mannopyranoside (Man-α-OMe), methyl-β-D-mannopyranoside (Man-β-OMe), methyl-α-D-fucopyranoside (Fuc-α-OMe), methyl-β-D-fucopyranoside (Fuc-β-OMe), N-acetylgalactosamine (GalNAc), and N-acetylglucosamine ([…]). The disaccharides used were the following 5 types: lactose (Gal-β1,4-Glc), N-acetyllactosamine (Gal-β1,4-GlcNAc), methyl-β-D-galactopyranosyl-β1,3-N-acetylglucosaminide (Gal-β1,3-GlcNAc-β-OMe), methyl-α-D-galactopyranosyl-α1,3-galactopyranoside (Gal-α-1,3-Gal-α-OMe), and methyl-β-D-galactopyranosyl-β1,3-galactopyranoside (Gal-β1,3-Gal-β-OMe). The trisaccharide used was 2′-fucosyllactose (Fuc-α1,2-Galβ1,4-Glc). It should be noted that the final concentration was set to 8.4 mM for the sugar chains shown in Table 18, i.e., methyl-α-D-galactopyranosyl-α1,3-galactopyranoside (Gal-α1,3-Gal-α-OMe), methyl-β-D-galactopyranosyl-β1,3-galactopyranoside (Gal-β1,3-Gal-β-OMe) and 2′-fucosyllactose (Fuc-α1,2-Gal-β1,4-Glc).
(§3) After completion of the enzymatic reaction, 1.98 ml of 5 mM phosphate buffer (pH 6.8) was added to the reaction solution to stop the enzymatic reaction. Then, the enzymatic reaction solution was diluted with 5 mM phosphate buffer (pH 6.8) and applied in a volume of 2 ml to a AG1−×2 Resin (PO4^3− form, 0.2×2 cm) column. This column was prepared as follows: AG1-x 2 Resin (OH^− form, BIO-RAD) was suspended in 1 M phosphate buffer (pH 6.8), and after 30 minutes, the resin was washed with distilled water and then suspended in distilled water. The eluate (0 to 2 ml) from this column was measured for its radioactivity. The eluate from this column contains the unreacted glycosyl acceptor substrate and the ^14C-NeuAc (N-acetylneuraminic acid)-bound reaction product which was generated by the reaction, but unreacted CMP-14C-NeuAc is still retained on the column. Thus, the radioactivity of ^14C from each sialic acid-containing sugar chain generated as a result of the enzymatic reaction arises exclusively from the reaction product, so that the radioactivity of this fraction can be used to calculate the enzyme activity.
(§4) In the manner described above, the radioactivity of NeuAc transferred to each glycosyl acceptor substrate was measured to calculate the amount of transferred sialic acid.

[2] = test system: ISH224-N1C0 recombinant β-galactoside-α2,3-sialyltransferase; assay: as above; assay type: biochemical, Photobacterium sp.
Description: as §1, §2, §3, §4

[3] = test system: FAJ-N1C0 recombinant β-galactoside-α2,3-sialyltransferase; assay: Acceptor substrate specificity of recombinant β-galactoside-α2,3-sialyltransferase (mono-, disaccharides); assay type: biochemical, Vibrio sp.; set-up: FAJ-N1C0 Sialyltransferase activity Relative activity (%): tested at 42 mM; details: 20° C., 14 hours; for FAJ-N1C0 Sialyltransferase activity: Table 16: 1 μmol acceptor, pH 5.0, about 2.5 mU enzyme; for FAJ-N1C0 Sialyltransferase activity Relative activity (%): Table 16: activity toward lactose set to 100
Description: as §1, §2, §3, §4

[4] = Table 16: 1 μmol acceptor, pH 5.0, about 2.5 mU enzyme, 20° C., 14 hours
[5] = Table 16: activity toward lactose set to 100, 20° C., 14 hours
[6] = Table 17: 1 μmol acceptor, pH 5.0, 2.3 mU per reaction, 30° C., 0.5 minutes or 2 minutes
[7] = Table 17: activity toward lactose set to 100, 30° C., 0.5 minutes or 2 minutes
[8] = Table 17: 1 μmol acceptor, pH 5.0, 1.0 mU per reaction, 30° C., 0.5 minutes or 2 minutes
[9] = Table 18: 0.2 μmol acceptor (8.4 mM), pH 5.0, 23 mU per reaction, 30° C., 2 minutes
[10] = Table 18: activity toward lactose set to 100, 0.2 μmol acceptor, 30° C., 2 minutes
[11] = Table 18: 0.2 μmol acceptor (8.4 mM), pH 5.0, 1.0 mU per reaction, 30° C., 2 minutes

| Structure (SMILES) | ISH467-N2C0 Sialyltransferase activity [1, 4] | ISH467-N2C0 Sialyltransferase activity Relative activity (%) [1, 5] | ISH467-N2C0 Sialyltransferase activity [1, 6] | ISH467-N2C0 Sialyltransferase activity Relative activity (%) [1, 7] | ISH224-N1C0 Sialyltransferase activity [2, 4] | ISH224-N1C0 Sialyltransferase activity Relative activity (%) [2, 5] | ISH224-N1C0 Sialyltransferase activity [2, 8] | ISH224-N1C0 Sialyltransferase activity Relative activity (%) [2, 7] | FAJ-N1C0 Sialyltransferase activity [3] | FAJ-N1C0 Sialyltransferase activity Relative activity (%) [3] | ISH467-N2C0 Sialyltransferase activity [1, 9] | ISH467-N2C0 Sialyltransferase activity Relative activity (%) [1, 10] | ISH224-N1C0 Sialyltransferase activity [2, 11] | ISH224-N1C0 Sialyltransferase activity Relative activity (%) [2, 10] |
| --- | --- | --- | --- | --- | --- | --- | --- | --- | --- | --- | --- | --- | --- | --- |
| CO[C@@H]1O[C@H](CO)[C@@H](O)[C@H](O)[C@H]1O [Methylβglucopyranoside, methyl-β-D-glucopyranoside] | 3.6 nmol/min | 46% | 0.76 nmol/min | 33% | 3.7 nmol/min | 43% | 0.27 nmol/min | 26% | 4.0 nmol/min | 52% |  |  |  |  |
| CO[C@@H]1O[C@H](C)[C@H](O)[C@H](O)[C@H]1O [Methylβfucopyranoside, methyl-β-D-fucopyranoside] |  |  | 0.97 nmol/min | 42% |  |  | 0.50 nmol/min | 48% |  |  |  |  |  |  |
| CO[C@H]1O[C@H](CO)[C@@H](O)[C@H](O)[C@@H]1O [Methylαmannopyranoside, methyl-α-D-mannopyranoside] | 5.5 nmol/min | 71% | 1.38 nmol/min | 60% | 4.7 nmol/min | 56% | 1.11 nmol/min | 108% | 4.3 nmol/min | 57% |  |  |  |  |
| CO[C@H]1O[C@H](CO)[C@H](O)[C@H](O[C@H]2O[C@H](CO)[C@H](O)[C@H](O)[C@H]2O)[C@H]1O [methyl-α-D-galactopyranosyl-α1,3-galactopyranoside] |  |  |  |  |  |  |  |  |  |  | 7.17 nmol/min | 308% | 8.80 nmol/min | 528% |
| CC(=O)N[C@H]1C(O)O[C@H](CO)[C@@H](O)[C@@H]1O (stereo partly drawn) [N-Acetylglucosamine, N-acetylglucosamine] | 5.0 nmol/min | 63% | 0.91 nmol/min | 40% | 5.7 nmol/min | 68% | 0.51 nmol/min | 50% | 4.2 nmol/min | 55% |  |  |  |  |
| CO[C@@H]1O[C@H](CO)[C@H](O)[C@H](O[C@@H]2O[C@H](CO)[C@H](O)[C@H](O)[C@H]2O)[C@H]1O [methyl-β-D-galactopyranosyl-β1,3-galactopyranoside] |  |  |  |  |  |  |  |  |  |  | 5.17 nmol/min | 222% | 5.52 nmol/min | 331% |
| CO[C@H]1O[C@H](C)[C@H](O)[C@H](O)[C@H]1O [Methylαfucopyranoside, methyl-α-D-fucopyranoside] |  |  | 1.13 nmol/min | 49% |  |  | 0.70 nmol/min | 68% |  |  |  |  |  |  |
| CO[C@H]1O[C@H](CO)[C@@H](O)[C@H](O)[C@H]1O [Methylαglucopyranoside, methyl-α-D-glucopyranoside] | 6.2 nmol/min | 79% | 1.11 nmol/min | 48% | 4.3 nmol/min | 51% | 0.70 nmol/min | 68% | 4.7 nmol/min | 62% |  |  |  |  |
| CO[C@@H]1O[C@H](CO)[C@@H](O)[C@H](O)[C@@H]1O [Methylβmannopyranoside, methyl-β-D-mannopyranoside] |  |  | 1.45 nmol/min | 63% |  |  | 1.03 nmol/min | 100% |  |  |  |  |  |  |

Source: US8030043B2, “β-galactoside-α2,3-sialyltransferase, a gene encoding thereof, and a method for producing thereof” (Japan Tobacco Inc., priority 2005, dated 2011)
